We go through 5 molecules from patent US20260028340A1 (Supernus Pharmaceuticals, Inc., priority 2023, published 2026).

The nature of series [1]: Storage stability in acetonitrile or acetonitrile/water solution at room temperature. In kind it is physicochemical. The following applies: for decomposition in acetonitrile/water: crude product in acetonitrile/water, kept at room temperature overnight. How it is done: Preparatory HPLC of the crude product gave a mixture of the desired compound in addition to some Compound A (formed during the HPLC separation). After the product was treated with dichloromethane, the solution was dried over MgSO4, and was evaporated to give 15 mg of the ether derivative I-5 as an oily solid (97.7% by HPLC). After the sample was stored for 2 days at room temperature (RT) in acetonitrile solution, it had decomposed to approximately 85% purity with the main byproduct being a ring-opened form of Compound A.
(§1) 3,3-dimethylacrylic acid (96 mg, 0.96 mmol) and HATU (366 mg, 0.96 mmol) were mixed in 2 mL of DMF and 280 μL of DIPEA was added to the mixture. After the addition of Compound A (183 mg, 0.64 mmol), the mixture was stirred for 2 min. Additional DIPEA (280 μL) was added to the solution, and the yellow solution was stirred at room temperature for 2 hr. After the addition of water, the mixture was extracted with EtOAc (4×). The extract was washed with brine (4×), was dried over MgSO4, and was evaporated. […] This material was purified by prep HPLC to obtain 58 mg of II-7 (86% pure) that contained a later eluting byproduct. A sample was assayed for stability in water (63% at the 24-hour time point) and in a pH 7.4 buffer (77% at the 24 hour time point).
Geranic acid ([…], 0.96 mmol) and HATU (366 mg, 0.96 mmol) were mixed in 2 mL of DMF. Following the addition of 280 μL of DIPEA to the solution, Compound A (180 mg, 0.64 mmol) was added to the solution, and the mixture was stirred for 2 min. Additional DIPEA (280 μL) was added, and the yellow solution was stirred at room temperature for 2 hr. Following the addition of water, the mixture was extracted with EtOAc (4×). The extract was washed with brine (4×), was dried over MgSO4, and was evaporated. The crude product II-9 appeared by HPLC to be over 70% in one peak.

Series [2] can be described thus: Stability in water and in a pH 7.4 buffer. Type of series: physicochemical. The note with it: after 24 hours. On the procedure: A sample of the 15 mg isolated material was evaluated for stability in water and in a pH 7.4 buffer. After 24 hours, the sample in water had 86% remaining and the sample in the pH 7.4 buffer had 92% remaining. The decomposition gave mainly the ring-opened Compound A as a byproduct.
as §1

Series [3] in a line: Pharmacokinetic data in CD-1 mice after oral administration. Type of series: in vivo. The note with it: mouse, serum, Table 7: CD-1 mice, nominal dose 5.10 mg/kg Cmpd. A or 6.57-8.40 mg/kg DV salt, analyte: dosed derivative (DV).

In the case of `CC(C)=CCC/C(C)=C/C(=O)N1CCN=C1c1ccccc1C(=O)c1ccc(Cl)cc1` [II-9, (E)-1-(2-(2-(4-chlorobenzoyl)phenyl)-4,5-dihydro-1H-imidazol-1-yl)-3,7-dimethylocta-2,6-dien-1-one], in series [1], the decomposition in acetonitrile/water entry is recorded as “complete decomposition occurred”.
Turning to `CC(C)=CC(=O)N1CCN=C1c1ccccc1C(=O)c1ccc(Cl)cc1` [II-7, 1-(2-(2-(4-chlorobenzoyl)phenyl)-4,5-dihydro-1H-imidazol-1-yl)-3-methylbut-2-en-1-one], in series [1], the decomposition in acetonitrile/water entry is reported as “significant decomposition occurred”. Besides, in series [2], the “remaining, stability in pH 7.4 buffer” value is 77% and the “remaining, stability in water” value was 63%.
Consider `CC(C)/C=C/COC1(c2ccc(Cl)cc2)c2ccccc2C2=NCCN21` (centres unmarked) [Compound I-17, (E)-5-(4-chlorophenyl)-5-((4-methylpent-2-en-1-yl)oxy)-2,5-dihydro-3H-imidazo[2,1-a]isoindole], for which, in series [3], the AUC(0-inf) (usually the area under the concentration-time curve extrapolated to infinity) turned out to be 33.2 ng·h/mL; the AUC(0-t) (as a rule, the area under the concentration-time curve up to a stated or last time point) was 27.6 ng·h/mL; the Cmax – broadly, the maximum level reached in the sampled fluid or tissue – came out at 25.7 ng/mL; the Tmax (commonly the time from dosing to the highest level) was 15 min. In series [3], the half-life (in general, how long it takes for the measured level to halve) is 78 min.
As to `COC(=O)COC1(c2ccc(Cl)cc2)c2ccccc2C2=NCCN21` (centres unmarked) [Compound I-5, methyl 2-((5-(4-chlorophenyl)-2,5-dihydro-3H-imidazo[2,1-a]isoindol-5-yl)oxy)acetate], the “purity after storage in acetonitrile solution” value in series [1] (stored for 2 days at room temperature in acetonitrile solution, initial 97.7% by HPLC) is given as “approximately 85%”. Further, in series [2], the “remaining, stability in pH 7.4 buffer” value was 92% and the “remaining, stability in water” value is 86%.
Take `Clc1ccc(COC2(c3ccc(Cl)cc3)c3ccccc3C3=NCCN32)cc1` (centres unmarked) [Compound I-16, 5-((4-chlorobenzyl)oxy)-5-(4-chlorophenyl)-2,5-dihydro-3H-imidazo[2,1-a]isoindole]: in series [3], the AUC(0-inf) was 224 ng·h/mL, the area under the curve AUC(0-t) was 174 ng·h/mL, the Cmax was 53.3 ng/mL and the time to peak (Tmax) stood at 35 min. Moreover, the half-life in series [3] was 194 min.
